# In patent US10172947B2, “Antiparasitic and/or antifungal composition comprising hydrophobised chitosan” (CENTRE NATIONAL DE LA RECHERCHE SCIENTIFIQUE (CNRS), priority 2013, dated 2019):
# Assays:
# Type in all cases: cell-based
# [1] = system: Leishmania tropica promastigotes; test: In vitro evaluation on promastigotes (MTT); details: 72 h
# Description: (§1) The compositions 5a (PIBCA-[chitosan20/chitosan20-TBA] 100/0 m/m %) and 4 (MC3+α-cyclodextrin 1/10% m/v), described in point 3 hereinabove, have been tested in vitro on three strains of Leishmania: Leishmania major (MHOM/SU/73/5-ASKH/LEM134), Leishmania tropica (LRC-L39/LEM2563), Leishmania braziliensis (MHOM/BR/75/M2903b). The IC50 were measured then compared to the reference product amphotericin B in order to determine the anti-leishmanial activity of the nanoparticles.
# (§2) The promastigote culture was carried out at 26° C. in M199 medium (Sigma, Saint-Quentin Fallavier, France) supplemented with 4.2 mM NaHCO3, 10% of foetal calf serum inactivated by heat (Invitrogen, Saint-Aubin, France), 40 mM Hepes pH 7.5, 100 μM adenosine and 20 μM haemin (complete M199 medium).
# (§3) The test of the compositions on prosmatigotes was conducted as previously described (Saint-Pierre-Chazalet et al., J. Antimicrob. Chemother., 2009, 64, 993-1001). Series of dilutions were carried out in 100 μl of complete M199 medium in a 96-well plate. Promastigotes in exponential growth were then added to each well at a rate of 10^6/ml in a final volume of 200 μl. After 72 h of incubation at 26° C., the viability of the promastigotes was measured by using 250 μg/ml of MTT, or 3-(4,5-dimethylthiazol-2-yl)-2,5-diphenyl tetrazolium bromide (Sigma, Saint-Quentin Fallavier, France), which is reduced in formazan, an insoluble product, by the active mitochondria of the living cells. After 4 h of incubation at 26° C., the formazan is then solubilised by adding 100 μl of isopropanol containing 40 mM of HCl in each well, then incubating for 15 minutes under stirring. The viability of the cells was then quantified by measuring the absorbance at 570 nm using a plate reader (Labsystems Multiskan MS). The activity of the compositions is expressed in IC50. Amphotericin B is used as a reference product.
# [2] = system: Leishmania major promastigotes; test: In vitro evaluation on promastigotes (MTT); details: 72 h
# Description: as §1, §2, §3
# [3] = system: Leishmania braziliensis promastigotes; test: In vitro evaluation on promastigotes (MTT); details: 72 h
# Description: as §1, §2, §3
# [4] = system: Leishmania major axenic amastigotes; test: In vitro evaluation on axenic amastigotes (resazurin); details: 72 h
# Description: as §1
# (§4) The culture of the axenic amastigotes was carried out at 37° C. in a complete M199 medium supplemented with 200 μM CaCl2 and 200 μM MgCl2.
# (§5) Axenic amastigotes were induced by incubating promastigotes in complete M199 medium supplemented with 200 μM of CaCl2 and 200 μM MgCl2 at 37° C. with 5% CO2 for 48 h. Serial two-fold dilutions of the compositions were then carried out in 100 μl of the same medium in 96-well plates. The axenic amastigotes were then added in each well at 10^6/ml in 200 μl of final. volume After 72 h of incubation at 37° C. with 5% CO2, 20 μl of resazurin at 450 μM were added in each well, then incubated in the dark for 24 h at 37° C. with 5% CO2. In living cells, resazurin is reduced in resofurin. This conversion is monitored by measuring the absorbance at specific wavelengths of the resofurin (570 nm) and of the resazurin (600 nm) by using a microplate reader (Labsystem Multisken MS). The activity of the compositions is expressed in IC50. Amphotericin B is used as a reference product.
# [5] = system: Leishmania tropica axenic amastigotes; test: as above; details: 72 h
# Description: as §1, §4, §5
# [6] = system: Leishmania braziliensis axenic amastigotes; test: as above; details: 72 h
# Description: as §1, §4, §5
# [7] = system: Leishmania braziliensis intramacrophagic amastigotes; test: In vitro evaluation on intramacrophagic amastigotes (RAW 264.7, Sybr Green); details: 48 h of treatment
# Description: as §1
# (§6) The macrophages RAW 264.7 were maintained at 37° C. with 5% CO2 in DMEM medium (Dulbecco's modified Eagle's medium, Gibco, Saint-Aubin, France) supplemented with 10% of foetal calf serum, inactivated by heat (Invitrogen, Saint-Aubin, France), also called complete DMEM medium.
# (§7) The evaluation of the compositions 5a and 4 on intramacrophagic amastigotes was conducted as previously described (Audisio et al., Eur. J. Med. Chem., 2012, 52, 44-50). The macrophages RAW 264.7 were added in the wells of 96-well plates at a rate of 2×10^4 cells per well and incubated for 24 h at 37° C. with 5% CO2. The axenic amastigotes were then induced as described hereinabove, centrifuged at 2000 g for 10 minutes, then resuspended in a complete DMEM medium, and added to each well at a rate of 3.2×10^5 parasites per well, in order to reach a parasite/macrophage ratio of 16:1. After 24 h of infection at 37° C. with 5% CO2, the extracellular parasites were removed and 100 μl of complete DMEM medium containing the seried dilutions of the compositions were added to each well. After 48 h of treatment, the culture medium is removed, then replaced with 100 μl of DirectPCR Lysis reagent (Euromedex, Souffelweyersheim, France), and three freezing-thawing cycles at ambient temperature are then carried out, then 50 μg/ml of proteinase K are added, and a final incubation at 55° C. for 4 hours is carried out in order to allow for the complete lysis of the cells. […] The fluorescence of the DNA was measured using the Mastercycler® realplex (Eppendorf, Montesson, France). […]
# [8] = system: Leishmania major intramacrophagic amastigotes; test: as above; details: 48 h of treatment
# Description: as §1, §6, §7
# [9] = system: Leishmania tropica intramacrophagic amastigotes; test: as above; details: 48 h of treatment
# Description: as §1, §6, §7
# Trichomonas vaginalis = test: Anti Trichomonas vaginalis activity, parasite count after 24 h; details: reference product, MTZ-sensitive strain ATCC PRA-98
# Description: Trichomonas vaginalis is axenically cultivated at 35° C. in a trypticase-yeast extract-maltose medium (TYM) (Diamond L. S. et al., J. Parasitol., 1957, 43(4), 488-490) enriched with 10% of decomplemented horse serum (Gibco, France); the strain is subcultured every other day (Camuzat-Dedenis B. et al., Eur. J. Med. Chem., 2001, 36(10), 837-842).
# The tubes of culture containing the fresh TYM medium enriched with 10% of horse serum alone (control 1, noted as C1) or those with the compositions tested, are inoculated with the parasite at a rate of 2×10^5 protozoa in 3 mL. The compositions tested are the compositions of PIBCA-[chitosan20/chitosan20-TBA] that have different proportions of chitosan and of thiolated chitosan, namely 100/0, 75/25, 50/50 and 25/75 m/m %. The concentrations in nanoparticles studied are 12.5, 25, 50 and 100 μg/mL.
# The results are compared between (i) the nanoparticles of PIBCA/F68; (ii) the solutions comprised of mixtures of PIBCA-[chitosan20/chitosan20-TBA] having different proportions of chitosan and thiolated chitosan, namely 100/0, 75/25, 50/50 and 25/75 m/m %, (iii) the polymerisation medium (control 2, noted as C2). […]
# The tubes are incubated for 24 h at 35° C. and the number of parasites per milliliter in each tube is determined microscopically with a haemocytometer (Kova® Glasstic® Slide 10, Hycor Biomedical, United States). […]
# Candida albicans = test: Activity against Candida albicans, IC50 by microdilution with MTT viability test; details: 24 h at 35° C., molecule alone
# Description: The inoculum is prepared by sampling 5 colonies obtained after 24 h of culture on Sabouraud agar medium, each one of at least 1 mm in diameter, and by putting them in suspension in 5 mL of sterile NaCl (0.85%). The turbidity of each suspension is evaluated by measuring the optical density at a wavelength of 530 nm then adjusted with a sterile isotonic solution so as to obtain an absorbance equivalent to that obtained with the turbidimetric standard (Mac Farland 0.5).
# This protocol leads to the obtaining of a suspension of which the concentration is between 1×10^6 and 5×10^6 CFU/mL. […]
# Measuring the growth of yeasts is carried out by a standard colorimetric technique that makes use of tetrazolium salt MTT (5 mg/mL) (3-(4,5-dimethylthiazol-2-yl)-2,5-diphenyl tetrazolium bromide) with menadione (vitamin K). […] The quantity of precipitate formed is proportional to the quantity of living cells and to the metabolic activity of each cell. It is sufficient therefore after the incubation of the cells with MTT for 1 h at 37° C., to add an agent solubilising the crystals of formazan, to centrifuge the 96-well plates, and to read the optical density of the supernatant. A simple dosage of the optical density at 570 nm by spectroscopy makes it possible to know the relative quantity of living cells. […]
smiles,measurement,setting,value
"C[C@@H]1[C@H](O)[C@@H](C)/C=C/C=C/C=C/C=C/C=C/C=C/C=C/[C@H](O[C@@H]2O[C@H](C)[C@@H](O)[C@H](N)[C@@H]2O)C[C@@H]2O[C@](O)(C[C@@H](O)C[C@@H](O)[C@H](O)CC[C@@H](O)C[C@@H](O)CC(=O)O[C@H]1C)C[C@H](O)[C@H]2C(=O)O [Amphotericin B-DOC, Amphotericin B]",IC50 (ng/μl) ± SEM,[1],0.023 ± 0.002 ng/µL
same,IC50 (ng/μl) ± SEM,[2],0.015 ± 0.004 ng/µL
same,IC50 (ng/μl) ± SEM,[3],0.022 ± 0.005 ng/µL
same,IC50 (ng/μl) ± SEM,[4],0.038 ± 0.002 ng/µL
same,IC50 (ng/μl) ± SEM,[5],0.049 ± 0.01 ng/µL
same,IC50 (ng/μl) ± SEM,[6],0.055 ± 0.014 ng/µL
same,IC50 (ng/μl) ± SEM,[7],0.29 ± 0.09 ng/µL
same,IC50 (ng/μl) ± SEM,[8],0.49 ± 0.13 ng/µL
same,IC50 (ng/μl) ± SEM,[9],0.51 ± 0.07 ng/µL
"Cc1ncc([N+](=O)[O-])n1CCO [MTZ, metronidazole]",lethal concentration against Trichomonas vaginalis,Trichomonas vaginalis,7 µg/mL
N=C(NCCCCCCNC(=N)NC(=N)Nc1ccc(Cl)cc1)NC(=N)Nc1ccc(Cl)cc1.O=C(O)[C@H](O)[C@@H](O)[C@H](O)[C@H](O)CO.O=C(O)[C@H](O)[C@@H](O)[C@H](O)[C@H](O)CO [chlorhexidine digluconate],IC50 against Candida albicans,Candida albicans,0.00068%
